The source of these data is publication PMC9481570, “A small molecule antagonist of SMN disrupts the interaction between SMN and RNAP II” (Nature Communications, 2022).

Common to all, as to assay: Affinity-purification and mass spectrometry (AP-MS) chemical proteomics, all proteins;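 as to Difference: 200 µM free competitor with 20 µM biotin probe overnight in lysate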
Common to all, as to format: binding

Test [1] deals with T1, proteins displaced from immobilized biotin-Cmpd 1 pulldowns (U2OS cell lysate) (Homo sapiens, UniProt P09493).
T1 construct: endogenous in cells; host or cells: U2OS
T1 sequence (P09493 whole entry): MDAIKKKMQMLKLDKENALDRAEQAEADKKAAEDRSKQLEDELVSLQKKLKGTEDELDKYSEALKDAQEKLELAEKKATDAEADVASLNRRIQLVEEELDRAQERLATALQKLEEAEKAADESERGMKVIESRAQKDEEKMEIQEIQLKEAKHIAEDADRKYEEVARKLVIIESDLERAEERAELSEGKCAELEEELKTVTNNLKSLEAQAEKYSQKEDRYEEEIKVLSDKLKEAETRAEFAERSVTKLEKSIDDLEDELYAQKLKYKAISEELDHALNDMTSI
The conditions noted are these: GN=TPM1 (H0YKX5).

Test [2] addresses T2, proteins displaced from immobilized biotin-Cmpd 1 pulldowns (U2OS cell lysate) (Homo sapiens, UniProt P16615).
T2 construct: endogenous in cells; host or cells: U2OS
The following applies: GN=ATP2A2 (P16615).

Test [3] deals with T3, proteins displaced from immobilized biotin-Cmpd 1 pulldowns (U2OS cell lysate) (Homo sapiens, UniProt P57678).
T3 construct: endogenous in cells; host or cells: U2OS
T3 sequence (P57678 whole entry): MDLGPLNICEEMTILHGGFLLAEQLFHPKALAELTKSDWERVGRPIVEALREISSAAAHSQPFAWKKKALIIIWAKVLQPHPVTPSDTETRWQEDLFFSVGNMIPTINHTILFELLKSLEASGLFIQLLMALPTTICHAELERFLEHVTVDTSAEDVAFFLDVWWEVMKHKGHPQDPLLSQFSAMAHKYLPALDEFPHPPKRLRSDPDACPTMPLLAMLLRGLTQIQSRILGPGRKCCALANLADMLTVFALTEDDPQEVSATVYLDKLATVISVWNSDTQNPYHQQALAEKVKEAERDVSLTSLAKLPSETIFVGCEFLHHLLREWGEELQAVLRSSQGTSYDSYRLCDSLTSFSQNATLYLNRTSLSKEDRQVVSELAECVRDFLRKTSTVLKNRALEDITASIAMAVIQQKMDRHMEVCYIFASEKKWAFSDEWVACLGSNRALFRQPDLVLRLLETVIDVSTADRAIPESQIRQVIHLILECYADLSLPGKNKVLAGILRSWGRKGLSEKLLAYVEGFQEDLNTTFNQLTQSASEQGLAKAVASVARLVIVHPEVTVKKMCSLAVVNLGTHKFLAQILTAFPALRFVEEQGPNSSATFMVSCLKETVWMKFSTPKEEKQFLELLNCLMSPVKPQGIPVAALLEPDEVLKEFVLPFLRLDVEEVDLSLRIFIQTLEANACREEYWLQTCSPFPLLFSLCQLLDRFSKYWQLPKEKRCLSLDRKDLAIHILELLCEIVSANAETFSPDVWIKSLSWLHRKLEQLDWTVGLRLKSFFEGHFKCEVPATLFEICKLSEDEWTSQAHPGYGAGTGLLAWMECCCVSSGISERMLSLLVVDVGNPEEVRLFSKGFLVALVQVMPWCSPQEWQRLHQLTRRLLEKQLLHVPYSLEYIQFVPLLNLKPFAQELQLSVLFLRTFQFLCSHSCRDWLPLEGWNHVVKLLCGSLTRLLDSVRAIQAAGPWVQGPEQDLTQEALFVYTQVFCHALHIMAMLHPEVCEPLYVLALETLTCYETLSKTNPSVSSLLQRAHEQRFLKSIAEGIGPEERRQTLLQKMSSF
The conditions noted are these: GN=GEMIN4 (P57678).

In test [4] the target is T4, proteins displaced from immobilized biotin-Cmpd 1 pulldowns (U2OS cell lysate) (Homo sapiens, UniProt P60174).
T4 construct: endogenous in cells; host or cells: U2OS
T4 sequence (P60174 whole entry): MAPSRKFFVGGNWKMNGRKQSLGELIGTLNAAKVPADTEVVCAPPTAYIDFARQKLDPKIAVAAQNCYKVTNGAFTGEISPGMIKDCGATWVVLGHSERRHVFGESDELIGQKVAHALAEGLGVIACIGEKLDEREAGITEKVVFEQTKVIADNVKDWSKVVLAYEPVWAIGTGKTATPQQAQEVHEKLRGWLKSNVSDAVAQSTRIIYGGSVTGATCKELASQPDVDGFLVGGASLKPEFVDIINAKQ
The conditions noted are these: GN=TPI1 (P60174).

Test [5] concerns the target T5, proteins displaced from immobilized biotin-Cmpd 1 pulldowns (U2OS cell lysate) (Homo sapiens, UniProt Q14151).
T5 construct: endogenous in cells; host or cells: U2OS
The following applies: GN=SAFB2 (Q14151).

The target of test [6] is T6, proteins displaced from immobilized biotin-Cmpd 1 pulldowns (U2OS cell lysate) (Homo sapiens, UniProt Q5T749).
T6 construct: endogenous in cells; host or cells: U2OS
T6 sequence (Q5T749 whole entry): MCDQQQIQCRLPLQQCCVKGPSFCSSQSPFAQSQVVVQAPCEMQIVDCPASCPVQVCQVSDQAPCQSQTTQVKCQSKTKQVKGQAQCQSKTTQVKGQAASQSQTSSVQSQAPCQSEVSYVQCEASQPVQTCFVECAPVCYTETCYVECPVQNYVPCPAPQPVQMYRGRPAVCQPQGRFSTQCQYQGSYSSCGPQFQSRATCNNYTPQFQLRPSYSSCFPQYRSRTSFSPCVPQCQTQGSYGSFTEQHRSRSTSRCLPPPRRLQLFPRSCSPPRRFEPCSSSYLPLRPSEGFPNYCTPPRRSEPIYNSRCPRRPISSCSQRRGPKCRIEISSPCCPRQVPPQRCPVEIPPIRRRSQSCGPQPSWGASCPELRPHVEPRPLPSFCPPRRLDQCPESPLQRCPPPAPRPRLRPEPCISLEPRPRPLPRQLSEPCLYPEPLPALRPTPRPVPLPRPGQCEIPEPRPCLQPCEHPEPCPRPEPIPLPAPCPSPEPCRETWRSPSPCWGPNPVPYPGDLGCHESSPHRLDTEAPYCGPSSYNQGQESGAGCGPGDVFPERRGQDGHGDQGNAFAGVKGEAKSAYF
The following applies: GN=KPRP (Q5T749).

Molecules are shown by their SMILES. Values joined by “and” are separate entries in the source; they are usually repeats but may differ in a detail not shown here. Equal values may be shown once.

T2 sequence (P16615 whole entry): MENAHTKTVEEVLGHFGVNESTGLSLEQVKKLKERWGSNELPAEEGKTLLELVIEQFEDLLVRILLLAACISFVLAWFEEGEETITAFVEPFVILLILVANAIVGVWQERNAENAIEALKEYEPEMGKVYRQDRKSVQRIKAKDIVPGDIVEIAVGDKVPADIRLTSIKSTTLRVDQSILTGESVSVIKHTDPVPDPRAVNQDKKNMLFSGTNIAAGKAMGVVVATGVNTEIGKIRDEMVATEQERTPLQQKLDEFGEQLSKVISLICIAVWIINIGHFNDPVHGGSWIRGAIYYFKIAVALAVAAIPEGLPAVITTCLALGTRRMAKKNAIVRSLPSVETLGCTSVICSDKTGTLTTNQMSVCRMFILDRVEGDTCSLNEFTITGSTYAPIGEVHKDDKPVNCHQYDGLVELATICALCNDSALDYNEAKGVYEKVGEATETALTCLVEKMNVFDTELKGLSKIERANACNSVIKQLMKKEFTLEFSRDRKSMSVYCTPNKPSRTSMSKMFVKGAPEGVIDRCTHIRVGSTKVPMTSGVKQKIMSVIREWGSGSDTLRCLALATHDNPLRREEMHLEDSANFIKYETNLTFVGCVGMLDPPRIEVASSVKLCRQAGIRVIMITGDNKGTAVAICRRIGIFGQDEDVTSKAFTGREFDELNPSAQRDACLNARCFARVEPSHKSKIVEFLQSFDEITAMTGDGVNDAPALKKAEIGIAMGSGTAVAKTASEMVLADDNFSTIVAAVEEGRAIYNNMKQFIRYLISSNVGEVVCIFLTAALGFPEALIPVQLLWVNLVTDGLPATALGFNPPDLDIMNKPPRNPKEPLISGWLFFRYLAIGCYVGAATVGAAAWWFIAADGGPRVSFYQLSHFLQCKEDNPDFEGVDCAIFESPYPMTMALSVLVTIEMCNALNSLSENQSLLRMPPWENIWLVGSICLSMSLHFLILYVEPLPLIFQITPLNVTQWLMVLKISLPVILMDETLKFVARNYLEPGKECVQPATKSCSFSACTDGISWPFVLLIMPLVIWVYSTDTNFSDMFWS
T5 sequence (Q14151 whole entry): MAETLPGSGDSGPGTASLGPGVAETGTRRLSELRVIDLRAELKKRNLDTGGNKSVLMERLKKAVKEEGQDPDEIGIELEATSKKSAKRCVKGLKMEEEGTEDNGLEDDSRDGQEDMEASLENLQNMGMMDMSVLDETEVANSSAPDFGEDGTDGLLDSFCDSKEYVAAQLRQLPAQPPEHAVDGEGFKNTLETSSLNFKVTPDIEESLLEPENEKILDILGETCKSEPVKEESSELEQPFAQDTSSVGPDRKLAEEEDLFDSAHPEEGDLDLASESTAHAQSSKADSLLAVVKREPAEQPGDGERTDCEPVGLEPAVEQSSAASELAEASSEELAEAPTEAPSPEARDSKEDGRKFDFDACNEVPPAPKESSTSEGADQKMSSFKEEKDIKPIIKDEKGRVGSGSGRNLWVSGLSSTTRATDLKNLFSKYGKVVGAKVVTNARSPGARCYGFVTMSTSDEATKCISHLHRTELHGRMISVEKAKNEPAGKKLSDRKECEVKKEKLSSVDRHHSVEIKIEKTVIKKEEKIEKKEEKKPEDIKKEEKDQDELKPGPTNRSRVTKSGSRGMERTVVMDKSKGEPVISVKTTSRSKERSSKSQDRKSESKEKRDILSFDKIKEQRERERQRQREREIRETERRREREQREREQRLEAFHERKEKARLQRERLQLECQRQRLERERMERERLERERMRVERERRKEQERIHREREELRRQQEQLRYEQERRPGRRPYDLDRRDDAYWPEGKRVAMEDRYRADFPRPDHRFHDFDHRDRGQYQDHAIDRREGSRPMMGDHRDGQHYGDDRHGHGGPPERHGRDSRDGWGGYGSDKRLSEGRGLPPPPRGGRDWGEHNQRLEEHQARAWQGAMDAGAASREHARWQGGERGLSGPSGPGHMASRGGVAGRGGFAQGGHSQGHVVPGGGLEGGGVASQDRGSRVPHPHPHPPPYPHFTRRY

`Cn1c2c(c(=N)c3c1CCC3)CCC2` [Compound 1, 4-methyl-2,3,4,5,6,7-hexahydrodicyclopenta[b,e]pyridin-8(1H)-imine]: the Difference in test [1] (Cmpd minus DMSO, -LOG(P-value) 1.96752) is -0.7334; in test [2] (Cmpd minus DMSO, -LOG(P-value) 0.792118), 1.325; in test [3] (Cmpd minus DMSO, -LOG(P-value) 1.57311) it was -2.921; in test [4] (Cmpd minus DMSO, -LOG(P-value) 0.713184), -0.9556; in test [5] (Cmpd minus DMSO, -LOG(P-value) 1.24711), 1.435; in test [6] (Cmpd minus DMSO, -LOG(P-value) 1.8417), -3.732. The “iBAQ Cmpd” value is 21.937 and 22.2825 and 22.2241 in test [1] (replicates 1-3); 18.9227 and 18.7034 and 17.2331 in test [2] (replicates 1-3); 14.9119 and 15.2101 and 14.5309 in test [3] (replicates 1-3); 17.6148 and 17.9108 and 16.6151 in test [4] (replicates 1-3); 18.2139 and 16.8013 and 17.9077 in test [5] (replicates 1-3); 15.9159 and 16.7213 and 14.3127 in test [6] (replicates 1-3).
